Measurements reported in paper PMC11953117 (Cancer Chemotherapy and Pharmacology, 2025).

Experiments:
[1] = Relative dose intensity (RDI) of capivasertib monotherapy; assay type: in vivo, human
Method: The exposure–response analyses were conducted using a subset of patients from the PopPK analysis where capivasertib was used as monotherapy. […] As different schedules were assessed between and within studies, the exposure metrics were derived for the last dose of the last dosing day in the second week of treatment (i.e. on days 14, 11, and 9 for the continuous, [4/3] and [2/5] schedules, respectively), to ensure SS conditions, using the planned dose. […] The relative dose intensity (RDI) was calculated as the percentage of the average weekly dose relative to the PWD to examine the tolerability of capivasertib monotherapy at the given dosing schedules.

[2] = Safety endpoints (treatment-emergent AEs, CTCAE v4) in three phase 1 studies; assay type: in vivo, human; settings: Continuous BID, pooled studies
From the text: AEs were collected throughout the trials, graded using Common Terminology Criteria for Adverse Events v4. Treatment-emergent AEs (TEAEs), defined as any AE that started after the first dose of study treatment or that started prior to dosing and worsened during on treatment period (by investigator report of a change in intensity) following exposure to treatment, were included in the analysis.
The rash AE endpoint pooled the following Medical Dictionary for Regulatory Activities (MedDRA) preferred terms: rash maculo-papular, rash macular, rash, rash generalized, rash papular and rash pruritic, while the diarrhea AE and hyperglycemia AE included the MedDRA preferred terms diarrhea and hyperglycemia, respectively.
The grade selection for diarrhea and rash was based on clinical relevance in terms of limiting quality of life; for hyperglycemia the grade was higher considering this is a pharmacodynamic effect of AKT inhibition and often seen as asymptomatic change of laboratory value only.

With `NC1(C(=O)N[C@@H](CCO)c2ccc(Cl)cc2)CCN(c2ncnc3[nH]ccc23)CC1` [capivasertib, 4-amino-N-[(1S)-1-(4-chlorophenyl)-3-hydroxypropyl]-1-(7H-pyrrolo[2,3-d]pyrimidin– 4-yl)piperidine-4-carboxamide] the RDI ([1]; OAK, [4/3] BID, 480 mg, PWD 3840 mg, N=30, median (range)) was 100 (45.6–115.4) %, the RDI ([1]; Study 1, Continuous BID, 80 mg, PWD 1120 mg, N=5, median (range)) was 100.0 (95.9–100.6) % and the RDI ([1]; Study 1, Continuous BID, 160 mg, PWD 2240 mg, N=5, median (range)) was 97.6 (83.5–102.3) %. The RDI ([1]; Study 1, Continuous BID, 240 mg, PWD 3360 mg, N=6, median (range)) was 100.3 (98.8–100.9) %, the RDI ([1]; Study 1, Continuous BID, 320 mg, PWD 4480 mg, N=12, median (range)) was 98.1 (37.2–102.4) % and the RDI ([1]; Study 1, Continuous BID, 400 mg, PWD 5600 mg, N=11, median (range)) was 80.3 (55.4–102.1) %. The RDI ([1]; Study 1, Continuous BID, 480 mg, PWD 6720 mg, N=6, median (range)) was 50.2 (45.3–83.3) %, the RDI ([1]; Study 1, Continuous BID, 600 mg, PWD 8400 mg, N=2, median (range)) was 103.1 (100–106.2) % and the RDI ([1]; Study 1, [2/5] BID, 640 mg, PWD 2560 mg, N=8, median (range)) was 94.0 (80.9–109.1) %. For the same molecule, the RDI ([1]; Study 1, [2/5] BID, 800 mg, PWD 3200 mg, N=14, median (range)) was 101.1 (42.5–133.3) %, the RDI ([1]; Study 1, [4/3] BID, 480 mg, PWD 3840 mg, N=127, median (range)) was 97.9 (26.4–138.9) % and the RDI ([1]; Study 1, [4/3] BID, 640 mg, PWD 5120 mg, N=10, median (range)) was 100.0 (70.5–122.2) %. For the same molecule, the RDI ([1]; Study 4 (Japanese patients), Continuous BID, 80 mg, PWD 1120 mg, N=3, median (range)) was 100.0 (88.7–102.3) %, the RDI ([1]; Study 4 (Japanese patients), Continuous BID, 240 mg, PWD 3360 mg, N=7, median (range)) was 100.0 (41.9–106.7) % and the RDI ([1]; Study 4 (Japanese patients), Continuous BID, 320 mg, PWD 4480 mg, N=6, median (range)) was 91.5 (59.3–101.1) %. The RDI ([1]; Study 4 (Japanese patients), Continuous BID, 400 mg, PWD 5600 mg, N=5, median (range)) was 72.1 (51.4–85.7) %, the RDI ([1]; Study 4 (Japanese patients), [2/5] BID, 640 mg, PWD 2560 mg, N=6, median (range)) was 111.2 (100–119) % and the RDI ([1]; Study 4 (Japanese patients), [4/3] BID, 360 mg, PWD 2880 mg, N=8, median (range)) was 107.9 (91.4–112) %. The RDI ([1]; Study 4 (Japanese patients), [4/3] BID, 480 mg, PWD 3840 mg, N=6, median (range)) was 107.9 (79.1–108.6) %, the RDI ([1]; [4/3] and [2/5] schedules at all dose levels) was over 90% and the RDI ([1]; continuous schedule, 400 and 480 mg doses) was at most 80%. The “AE grade ≥ 1” value ([2]; 80 mg, N=8) was 8 (100) n (%), the “AE grade ≥ 3” value ([2]; 80 mg, N=8) was 2 (25.0) n (%) and the “AEDD (AE leading to dose discontinuation)” value (shortened to “AEDD”) ([2]; 80 mg, N=8) was 0 n (%). The “AEDM (AE leading to dose modification)” value ([2]; 80 mg, N=8) was 2 (25.0) n (%), the “Diarrhea AE grade ≥ 2” value ([2]; 80 mg, N=8) was 0 n (%) and the “Hyperglycemia AE grade ≥ 3” value ([2]; 80 mg, N=8) was 0 n (%). The “Increased BG > 13.9 mmol/L” value ([2]; 80 mg, N=8) was 0 n (%), the “Rash AE grade ≥ 2” value ([2]; 80 mg, N=8) was 1 (12.5) n (%) and the SAE ([2]; 80 mg, N=8) was 2 (25.0) n (%). The “AE grade ≥ 1” value ([2]; 160 mg, N=5) was 5 (100) n (%), the “AE grade ≥ 3” value ([2]; 160 mg, N=5) was 0 n (%) and the “AEDD” value ([2]; 160 mg, N=5) was 0 n (%). The “AEDM (AE leading to dose modification)” value ([2]; 160 mg, N=5) was 1 (20.0) n (%), the “Diarrhea AE grade ≥ 2” value ([2]; 160 mg, N=5) was 0 n (%) and the “Hyperglycemia AE grade ≥ 3” value ([2]; 160 mg, N=5) was 0 n (%). For the same molecule, the “Increased BG > 13.9 mmol/L” value ([2]; 160 mg, N=5) was 0 n (%), the “Rash AE grade ≥ 2” value ([2]; 160 mg, N=5) was 1 (20.0) n (%) and the SAE ([2]; 160 mg, N=5) was 1 (20.0) n (%). The “AE grade ≥ 1” value ([2]; 240 mg, N=13) was 12 (92.3) n (%), the “AE grade ≥ 3” value ([2]; 240 mg, N=13) was 4 (30.8) n (%) and the “AEDD” value ([2]; 240 mg, N=13) was 1 (7.7) n (%). For the same molecule, the “AEDM (AE leading to dose modification)” value ([2]; 240 mg, N=13) was 2 (15.4) n (%), the “Diarrhea AE grade ≥ 2” value ([2]; 240 mg, N=13) was 4 (30.8) n (%) and the “Hyperglycemia AE grade ≥ 3” value ([2]; 240 mg, N=13) was 2 (15.4) n (%). For the same molecule, the “Increased BG > 13.9 mmol/L” value ([2]; 240 mg, N=13) was 4 (30.8) n (%), the “Rash AE grade ≥ 2” value ([2]; 240 mg, N=13) was 3 (23.1) n (%) and the SAE ([2]; 240 mg, N=13) was 0 n (%). The “AE grade ≥ 1” value ([2]; 320 mg, N=18) was 18 (100) n (%), the “AE grade ≥ 3” value ([2]; 320 mg, N=18) was 10 (55.6) n (%) and the “AEDD” value ([2]; 320 mg, N=18) was 3 (16.7) n (%). The “AEDM (AE leading to dose modification)” value ([2]; 320 mg, N=18) was 8 (44.4) n (%), the “Diarrhea AE grade ≥ 2” value ([2]; 320 mg, N=18) was 5 (27.8) n (%) and the “Hyperglycemia AE grade ≥ 3” value ([2]; 320 mg, N=18) was 2 (11.1) n (%). For the same molecule, the “Increased BG > 13.9 mmol/L” value ([2]; 320 mg, N=18) was 3 (16.7) n (%), the “Rash AE grade ≥ 2” value ([2]; 320 mg, N=18) was 5 (27.8) n (%) and the SAE ([2]; 320 mg, N=18) was 4 (22.2) n (%). The “AE grade ≥ 1” value ([2]; 400 mg, N=16) was 16 (100) n (%), the “AE grade ≥ 3” value ([2]; 400 mg, N=16) was 15 (93.8) n (%) and the “AEDD” value ([2]; 400 mg, N=16) was 7 (43.8) n (%). The “AEDM (AE leading to dose modification)” value ([2]; 400 mg, N=16) was 15 (93.8) n (%), the “Diarrhea AE grade ≥ 2” value ([2]; 400 mg, N=16) was 10 (62.5) n (%) and the “Hyperglycemia AE grade ≥ 3” value ([2]; 400 mg, N=16) was 4 (25.0) n (%). The “Increased BG > 13.9 mmol/L” value ([2]; 400 mg, N=16) was 7 (43.8) n (%), the “Rash AE grade ≥ 2” value ([2]; 400 mg, N=16) was 8 (50.0) n (%) and the SAE ([2]; 400 mg, N=16) was 6 (37.5) n (%). For the same molecule, the “AE grade ≥ 1” value ([2]; 480 mg, N=6) was 6 (100) n (%), the “AE grade ≥ 3” value ([2]; 480 mg, N=6) was 6 (100) n (%) and the “AEDD” value ([2]; 480 mg, N=6) was 4 (66.7) n (%). For the same molecule, the “AEDM (AE leading to dose modification)” value ([2]; 480 mg, N=6) was 5 (83.3) n (%), the “Diarrhea AE grade ≥ 2” value ([2]; 480 mg, N=6) was 5 (83.3) n (%) and the “Hyperglycemia AE grade ≥ 3” value ([2]; 480 mg, N=6) was 2 (33.3) n (%). The “Increased BG > 13.9 mmol/L” value ([2]; 480 mg, N=6) was 2 (33.3) n (%).
